A word on the Kd: it is the equilibrium constant for the complex coming apart. As a reminder, the Ki is a measure of affinity in units of concentration, obtained from inhibition or displacement.

This is an account of results in patent US5744121A (priority 1996, dated 1998).

Read-outs that look alike come from different tables or passages of the source.

One series deals with other receptors. The conditions noted are these: cited from earlier work.
In series [1] the target is 5-HT1A receptor. The conditions noted are these: cited from earlier work.
The next series deals with α1 receptor. The note with it: relative to 5-HT1A; cited from earlier work.
Series [2] in a line: Biodistribution in rats after iv injection. The note with it: average of 3 rats ± SD. In kind it is in vivo, Male Sprague-Dawley rats. As for the experimental part:
Male Sprague-Dawley rats (225-300 g), allowed free access to food and water, were used for an in vivo biodistribution study. While the rats were under ether anesthesia, 0.2 mL of a saline solution containing [^123 I]1a and 1b (8-10 μCi) was injected directly into the femoral vein, and rats were sacrificed at various time points postinjection by cardiac excision under ether anesthesia. The organs of interest were removed and weighed and the radioactivity was counted with a Packard […] automatic counter (Model 5000). The percentage dose per organ was calculated by a comparison of the tissue counts to suitably diluted aliquots of the injected material.

A short description of series [3]: Regional brain distribution in rats after iv injection. In kind it is in vivo, Male Sprague-Dawley rats. The note with it: rat; for tissue uptake at 0.5 h: 30 min; for tissue uptake at 2 h: 120 min.
Method: (§1) While the rats were under ether anesthesia, 0.2 mL of a saline solution containing [^123 I]1a and 1b (8-10 μCi) was injected directly into the femoral vein, and rats were sacrificed at various time points postinjection by cardiac excision under ether anesthesia. The organs of interest were removed and weighed and the radioactivity was counted with a Packard garnma automatic counter (Model 5000). The percentage dose per organ was calculated by a comparison of the tissue counts to suitably diluted aliquots of the injected material. Total activities of blood and muscle were calculated under the assumption that they were 7% and 40% of the total body weight, respectively.
(§2) By dissecting, weighing and counting samples from different brain regions (cortex, striatum, hippocampus, hypothalamus and cerebellum), the percentage dose/gram of the sample was calculated by comparing the sample counts with the count of the diluted initial dose.
The nature of series [4]: Partition coefficient (octanol/phosphate). The note with it: octanol/0.1M phosphate, pH 7.0; read-out: P.C (partition coefficient) (converted). In kind it is physicochemical. The source says:
P.C = 1800 (octanol/0.1M phosphate, pH 7.0)

Series [5] can be described thus: Stability of the radiolabelled product on storage. In kind it is physicochemical. The note with it: -20° C., at least four weeks, HPLC; 40320 min.
The subject of series [6] is 5-HT1A receptor. Briefly: Regional brain distribution in rats after iv injection. In kind it is in vivo, Male Sprague-Dawley rats. The conditions noted are these: ^123 I labeled, iv.
Method: as §1, §2
The target of series [7] is T1, 5-HT1A receptor (rat hippocampal homogenates) (Rattus norvegicus, UniProt P19327).
T1 construct: in rat hippocampal membrane preparations; from tissue; host or cells: rat hippocampus (membrane preparations / tissue homogenates)
T1 sequence (P19327 1-422): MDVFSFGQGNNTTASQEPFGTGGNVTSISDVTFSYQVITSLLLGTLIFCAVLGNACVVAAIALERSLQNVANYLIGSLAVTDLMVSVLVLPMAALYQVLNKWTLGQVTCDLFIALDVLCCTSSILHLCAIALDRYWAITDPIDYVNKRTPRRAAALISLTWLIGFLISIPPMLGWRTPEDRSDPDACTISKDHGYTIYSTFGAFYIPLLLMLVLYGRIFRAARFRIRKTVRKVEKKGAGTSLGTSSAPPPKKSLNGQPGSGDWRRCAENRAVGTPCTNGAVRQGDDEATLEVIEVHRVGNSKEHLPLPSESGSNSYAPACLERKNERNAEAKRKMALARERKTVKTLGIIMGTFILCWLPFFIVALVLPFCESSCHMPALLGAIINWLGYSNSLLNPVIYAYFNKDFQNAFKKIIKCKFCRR
Briefly: Inhibition of [^125 I]-p-MPP binding to rat hippocampal homogenates. The note with it: ligand [^125 I]-p-MPP, rat hippocampal homogenates; read-out: Ki.

Series [8] concerns the target T1, 5-HT1A receptor (rat hippocampal homogenates). Briefly: Inhibition of [^125 I]-8-OH-PIPAT binding to rat hippocampal homogenates. The conditions noted are these: ligand [^125 I]-8-OH-PIPAT. The text has this: The 5-HT1A binding affinity of p-, m-, o- MPPI, p-fluoro- and p-nitro-MPP derivatives (1a-f) in rat hippocampal membrane preparations with [^123 ]
Series [9] has as its system 5-HT1A receptor. Kind of series: Blocking studies: regional brain uptake ratios in rats. The conditions noted are these: 30 min post iv injection of tracer. In kind it is in vivo. As for the experimental part:
In order to further characterize the in vivo brain uptake of 1a in rats, blocking studies were carried out to determine changes of the ratios of regional brain uptake. […] Ratios for each region were calculated based on the % dose/gram of each region divided by the same in CB. […] (HP: hippocampus; CB: cerebellum; HY: hypothalamus; CX: cortex; ST: striatum).

Series [10] has as its system serotonin (5-HT1A) receptor. Kind of series: Selectivity for serotonin 5-HT1A receptor. In kind it is binding.
The mark [11] stands for this setting: cerebellum, iv, rats (Table III), read-out: Regional distribution, cerebellum.
[12] abbreviates: cortex, iv, rats (Table III), read-out: Regional distribution, cortex.
Setting [13] is: hippocampus, iv, rats (Table III), read-out: Regional distribution, hippocampus.
[14] abbreviates: hypothalamus, iv, rats (Table III), read-out: Regional distribution, hypothalamus.
Setting [15] is: striatum, iv, rats (Table III), read-out: Regional distribution, striatum.

For `COc1ccccc1N1CCN(CCCCNC(=O)C23CC4CC(CC(C4)C2)C3)CC1` [4-[4-(1-adamantanecarboxamido)-butyl] 1-(2-methoxyphenyl)piperazine], in the series on other receptors, the “binding affinity to other receptors” value is “devoid of binding affinity to other receptors”. Moreover, the Kd at 5-HT1A receptor [1] (5-HT1A receptor) is 400 pM.

Take `COc1ccccc1N1CCN(CCCCN2C(=O)c3ccccc3C2=O)CC1` [NAN-190, 1-(2-methoxyphenyl)-4-[4-(2-phthalimido)butyl]piperazine]: in the series with α1 receptor, the “potency for the α1 receptor” value is listed as “equal potency for the α1 receptor”. In addition, the Ki at 5-HT1A receptor [1] (5-HT1A affinity) was 600 pM.

For `COc1ccccc1N1CCN(CCN(C(=O)c2ccc([123I])cc2)c2ccccn2)CC1` [[^123 I] 1a], the Blood uptake in series [2] (2 min) is 4.49 ± 0.55 % dose/organ; in series [2] (30 min) it was 4.04 ± 1.24 % dose/organ; in [2] (60 min), 2.73 ± 0.09 % dose/organ; in series [2] (120 min) it was 2.05 ± 0.30 % dose/organ. For the same compound, the Brain uptake is 1.22 ± 0.22 % dose/organ in [2] (2 min), 0.22 ± 0.01 % dose/organ in series [2] (30 min), 0.12 ± 0.005 % dose/organ in series [2] (60 min) and 0.05 ± 0.002 % dose/organ in series [2] (120 min). For the same compound, the Heart uptake stood at 0.91 ± 0.09 % dose/organ in series [2] (2 min), 0.18 ± 0.04 % dose/organ in series [2] (30 min), 0.13 ± 0.02 % dose/organ in series [2] (60 min) and 0.07 ± 0.003 % dose/organ in series [2] (120 min). In addition, the Kidney uptake is recorded as 5.20 ± 0.44 % dose/organ in series [2] (2 min), 1.74 ± 0.49 % dose/organ in series [2] (30 min), 1.06 ± 0.23 % dose/organ in series [2] (60 min) and 0.62 ± 0.11 % dose/organ in [2] (120 min). Besides, the Liver uptake came to 14.2 ± 3.1 % dose/organ in series [2] (2 min), 8.71 ± 0.20 % dose/organ in series [2] (30 min), 7.53 ± 0.99 % dose/organ in series [2] (60 min) and 5.16 ± 1.01 % dose/organ in [2] (120 min). Also, the Lung uptake in series [2] (2 min) worked out at 2.39 ± 0.10 % dose/organ; in series [2] (30 min) it was 0.48 ± 0.05 % dose/organ; in [2] (60 min), 0.31 ± 0.04 % dose/organ; in series [2] (120 min), 0.18 ± 0.002 % dose/organ. Moreover, the Muscle uptake in [2] (2 min) amounted to 11.29 ± 4.15 % dose/organ; in [2] (30 min), 7.58 ± 2.48 % dose/organ; in series [2] (60 min) it was 4.34 ± 0.91 % dose/organ; in [2] (120 min), 2.14 ± 0.15 % dose/organ. For the same compound, the Skin uptake in series [2] (2 min) is listed as 8.34 ± 1.22 % dose/organ; in series [2] (30 min) it was 8.24 ± 1.60 % dose/organ; in series [2] (60 min), 4.51 ± 1.00 % dose/organ; in [2] (120 min) it was 5.82 ± 4.37 % dose/organ. Also, the Spleen uptake in series [2] (2 min) was 0.37 ± 0.13 % dose/organ; in series [2] (30 min) it was 0.14 ± 0.02 % dose/organ; in [2] (60 min), 0.11 ± 0.04 % dose/organ; in series [2] (120 min) it was 0.07 ± 0.009 % dose/organ. The Thyroid uptake is 0.09 ± 0.02 % dose/organ in series [2] (2 min), 0.03 ± 0.02 % dose/organ in series [2] (30 min), 0.02 ± 0.007 % dose/organ in [2] (60 min) and 0.02 ± 0.01 % dose/organ in series [2] (120 min). Also, the tissue uptake at 2 min was 0.64 ± 0.08 %ID/g in series [3] (setting [11]); 0.91 ± 0.06 %ID/g in series [3] (setting [12]); 0.87 ± 0.18 %ID/g in series [3] (setting [13]); 0.67 ± 0.1 %ID/g in series [3] (setting [14]); 0.76 ± 0.12 %ID/g in [3] (setting [15]). Besides, the tissue uptake at 0.5 h in series [3] (setting [11]) turned out to be 0.07 ± 0.006 %ID/g; in series [3] (setting [12]) it was 0.11 ± 0.01 %ID/g; in series [3] (setting [13]) it was 0.23 ± 0.007 %ID/g; in series [3] (setting [14]) it was 0.14 ± 0.04 %ID/g; in series [3] (setting [15]), 0.09 ± 0.0001 %ID/g. The tissue uptake at 1 h stood at 0.04 ± 0.001 %ID/g in series [3] (cerebellum, 60 min, iv, rats (Table III), read-out: Regional distribution, cerebellum); 0.061 ± 0.002 %ID/g in [3] (cortex, 60 min, iv, rats (Table III), read-out: Regional distribution, cortex); 0.127 ± 0.009 %ID/g in series [3] (hippocampus, 60 min, iv, rats (Table III), read-out: Regional distribution, hippocampus); 0.051 ± 0.004 %ID/g in series [3] (hypothalamus, 60 min, iv, rats (Table III), read-out: Regional distribution, hypothalamus); 0.046 ± 0.004 %ID/g in series [3] (striatum, 60 min, iv, rats (Table III), read-out: Regional distribution, striatum). Moreover, the tissue uptake at 2 h came out at 0.024 ± 0.0002 %ID/g in series [3] (setting [11]); 0.026 ± 0.002 %ID/g in [3] (setting [12]); 0.04 ± 0.003 %ID/g in series [3] (setting [13]); 0.03 ± 0.0002 %ID/g in series [3] (setting [14]); 0.021 ± 0.0007 %ID/g in [3] (setting [15]). The logD in series [4] is 3.26. In series [5], this compound registered a purity on storage greater than 95%.

Take `COc1ccccc1N1CCN(CCN(C(=O)c2ccc(I)cc2)c2ccccn2)CC1` [Compound 1a, 4-(2'-methoxy)phenyl-1-[2'-(N-2"-pyridinyl)-p-iodobenzamido]ethyl piperazine]: the Brain uptake in [2] (2 min) is reported as 1.22 % dose/organ. In addition, the “5-HT1A related specific uptake (regional distribution pattern in rat brain)” value with 5-HT1A receptor [6] was “displayed the 5-HT1A related specific uptake”. Moreover, the tissue uptake at 1 h in [3] (hippocampus, 60 minutes after iv injection, ^123 I labeled, read-out: Uptake in hippocampal tissue) is 0.13 %ID/g. Further, the Ki in series [7] was 960 ± 100 pM; in [8], 2600 ± 700 pM. Moreover, the HP/CB ratio was determined as 1.21 in the series on 5-HT1A receptor [9] ((±)8-OH-DPAT pretreated (2 mg/kg, iv, 5 min prior)); 1.07 with 5-HT1A receptor [9] (WAY 100635 pretreated (1 mg/kg, iv, 20 min prior)); 3.69 with 5-HT1A receptor [9] (control (no pretreatment)). Moreover, in [10], the “selectivity/affinity for serotonin 5-HT1A receptor” value was “unique high affinity and selectivity toward serotonin 5-HT1A sites”.
